Results published in BindingDB's records for doi:10.1007/bf00572436 (1985).

These molecules were tested against T1, Adenosine receptor A1 (Bos taurus, UniProt P28190).
T1 sequence (P28190 whole entry): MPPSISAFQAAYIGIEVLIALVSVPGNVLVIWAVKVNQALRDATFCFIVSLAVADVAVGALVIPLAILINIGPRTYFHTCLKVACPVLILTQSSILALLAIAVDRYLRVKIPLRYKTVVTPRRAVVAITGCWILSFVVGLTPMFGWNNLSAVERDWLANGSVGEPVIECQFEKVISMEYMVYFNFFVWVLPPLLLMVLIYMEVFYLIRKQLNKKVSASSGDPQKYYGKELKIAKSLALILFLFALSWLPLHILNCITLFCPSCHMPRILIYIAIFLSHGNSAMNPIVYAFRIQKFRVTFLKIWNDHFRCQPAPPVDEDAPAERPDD

Question: Which Ki does the source give for `O=c1[nH]c(=O)c2[nH]cnc2[nH]1` [NSC_1188] here?
Answer: > 10 µM

Question: Which Ki does the source give for `CCN(CC)CCn1cnc2c1c(=O)n(C)c(=O)n2C` [NSC_28329] here?
Answer: > 10 µM

Question: `CC(O)Cn1cnc2c1c(=O)n(C)c(=O)n2C` (stereo unspecified) [7-(2-Hydroxy-propyl)-1,3-dimethyl-3,7-dihydro-purine-2,6-dione(Proxyphylline)] was tested. Which Ki did it give?
Answer: > 10 µM

Question: For `CCCn1c(=O)c2nc(-c3ccc(O)cc3)[nH]c2n(CCC)c1=O` [8-(4-Hydroxy-phenyl)-1,3-dipropyl-3,9-dihydro-purine-2,6-dione], which Ki is on record?
Answer: 0.0032 µM

Question: Which Ki does the source give for `Cn1c(=O)c2c(ncn2CCO)n(C)c1=O` [BETA-HYDROXYETHYL THEOPHYLLINE] here?
Answer: > 10 µM

Question: How did the Ki turn out when `Cn1c(=O)c2c(ncn2C)n(C)c1=O` was run?
Answer: > 10 µM

Question: How did the Ki turn out when `CC(O)Cn1c(=O)c2c(ncn2C)n(C)c1=O` (stereo unspecified) [NSC_66120] was run?
Answer: > 10 µM

Question: How did the Ki turn out when `Cn1c(=O)c2nc(-c3ccc(O)cc3)[nH]c2n(C)c1=O` [8-(4-Hydroxy-phenyl)-1,3-dimethyl-3,7-dihydro-purine-2,6-dione] was run?
Answer: 0.0034 µM

Question: Which Ki does the source give for `CCCn1c(=O)c2[nH]c(-c3ccc(Cl)cc3N)nc2n(CCC)c1=O` [NSC_92411] here?
Answer: 0.0003 µM

Question: Which Ki does the source give for `CC(=O)Oc1ccc(-c2nc3c([nH]2)c(=O)n(C)c(=O)n3C)cc1` [8-(4-Acetoxyphenyl)theophylline] here?
Answer: 0.023 µM

Question: For `Cn1cnc2c1c(=O)[nH]c(=O)n2C` [theobromine], which Ki is on record?
Answer: > 10 µM

Question: Which Ki does the source give for `CCCn1c(=O)[nH]c(=O)c2[nH]cnc21` [3-Propylxanthine (enprofylline)] here?
Answer: > 10 µM

Question: For `CC(=O)CCCCn1c(=O)c2c(ncn2C)n(C)c1=O` [1-(5-Oxohexyl)theobromine (pentoxifylline)], which Ki is on record?
Answer: > 10 µM

Question: For `CC(C)Cn1c(=O)n(C)c(=O)c2[nH]cnc21` [1-methyl-3-(2-methylpropyl)-2,3,6,7-tetrahydro-1H-purine-2,6-dione], which Ki is on record?
Answer: 2.5 µM

Question: Which Ki does the source give for `Cn1c(=O)[nH]c2ncn(C)c2c1=O` [1,7-dimethylxanthine] here?
Answer: > 10 µM

Question: How did the Ki turn out when `Cn1c(=O)c2c(ncn2C[C@H](O)CO)n(C)c1=O` [Diprophylline] was run?
Answer: > 10 µM
